# Experimental data published in patent EP4368729A1, “MOLECULES TARGETING RIBOSOMAL PROTEIN RPL40 FOR USE IN COSMETICS AND THE TREATMENT OF DISEASES OF THE SKIN” (Merck Patent GmbH, priority 2022, dated 2024).
# Entries after “also recorded” stand apart in the source; their conditions may differ.
# Molecular target: T1, rpL40 (Saccharomyces cerevisiae, UniProt P0CH08)
# T1 construct: endogenous in cells; host or cells: S. cerevisiae diploid strain (BY2n / BY4743 background) co-transformed with the TE-FF and REN reporter plasmids
# T1 sequence (P0CH08 77-128): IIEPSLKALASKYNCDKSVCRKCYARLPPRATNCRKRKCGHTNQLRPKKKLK
# Assay: Biological activity of prospective L40 binders: tropoelastin-firefly / renilla dual luciferase reporter in yeast cells
# Assay type: cell-based
# Settings: treatment at 1nM, 10nM, 100nm, 1µM, 10µM and 100µM; replicates n=3; Figs. 3-5
# Protocol: The present invention will now be described further in the following examples with reference to the accompanying Figures, nevertheless, without being limited thereto. […] The wildtype (abbreviated WT) is shown as a red dot. […] Replicates n=3, and treatment was made at 1nM, 10nM, 100nm, 1µM, 10µM, and 100µM concentration of compounds.
# Wildtype (BY2n) and variant ribosomal protein yeast strains (Kelly DE, Lamb DC, Kelly SL. Genome-wide generation of yeast gene deletion strains. Comp Funct Genomics. 2001;2(4):236-42. doi: 10.1002/cfg.95. PMID: 18628917; PMCID: PMC2447215), that were co-transformed with the tropoelastin-firefly and the renilla protein expression reporter plasmids were used for overnight cultures using single colony inoculation. Cell density (OD600) was determined using a Hitachi U_3000 spectrophotometer. […]
# Dual luciferase assay readouts were performed with the GloMax Multi Detection System using the Dual-Luciferase® Reporter Assay System (Promega). For each dual luciferase luminescence measurement, 50 µl of a cell culture (5×10^5 cells) were transferred into a 96-well plate and lysed through addition of 20 µl passive lysis buffer (Promega) for one minute, following the instruction of the supplier. FF luminescence readout was detected upon addition of 50 µl of LAR II substrate, and then REN luminescence signal was recorded after the addition of 50 µl Stop & Glo® substrate. […]
compound,measurement,value
CCCC(Oc1cccc(C(=N)N)c1)C(=O)Nc1ccc2c(c1)S(=O)(=O)c1ccccc1-2 (stereo not shown) [Compound 22],translation in yeast cells,decreasing translation; also recorded: lowered translation
